Test results from patent publication US10729135B2, “Methods of controlling pests using terpendoles” (priority 2017, dated 2020).
Like-named read-outs stand apart in the source and are kept apart here.

Key:
Format in all cases: in vivo
[1] = tested on: green peach aphids (Myzus persicae); test: LC50 biological efficacy assay on green peach aphids, aerosolized dilutions on infested radish leaves
Protocol: Biological efficacy assays utilizing terpendoles were conducted on green peach aphids (Myzus persicae). Specifically, terpendole A, terpendole C, terpendole J, terpendole K, terpendole N, terpendole O and terpendole P were each separately applied in serial dilutions to determine the concentration at which 50% control of green peach aphids occurred over a period of 24-48 hours (“LC50”). Radish leaves infested with green peach aphids were treated, top and bottom, with a total of 500 μl of an aerosolized terpendole dilution. Treated, aphid infested leaves were held in greenhouse conditions and evaluated for efficacy at 24 and 48 h.

[2] = tested on: diamondback moth (Plutella xylostella); test: whole plant or invertebrate
Protocol: (§1) A bioefficacy assay utilizing terpendole C was conducted on the lepidopterans: diamondback moth (Plutella xylostella) and common cutworm (Spodoptera litura): the whitefly, tobacco whitefly (Bemisia tabaci) the thrips, western flower thrips (Frankliniella occidentalis); the planthopper, brown rice planthopper (Nilaparvata lugens); the aphids, cotton aphid (Aphis gossypii), foxglove aphid (Aulacorthum solani), cabbage aphid (Brevicoryne brassicae), birdcherry-oat aphid (Rhopalosiphum padi), green peach aphid (Myzus persicae); and the mite, two-spotted spider mite (Tetranychus urticae). Specifically, terpendole C was diluted with acetone and 5% Tween® 20 and finally diluted with water to prepare spray solutions. Terpendole C was then applied to plants as a foliar spray at 500, 200, 50, 12.5, 3.1, 1, 0.8 and/or 0.2 ppm and/or as a soil treatment at 2,500, 1,000, 250, 63, 16, 4 and/or 1 ppm. Pests were then placed on the plant or in the soil. Further, mortality and appetite suppression were recorded at 6, 7 and/or 13 days after treatment (“DAT”) and are reported in Tables 2 and 3, below, respectively.

[3] = tested on: two-spotted spider mite (Tetranychus urticae); test: whole plant or invertebrate; settings: Kidney Bean, All stages; for mortality at 12.5 ppm / mortality at 50 ppm / mortality at 200 ppm / mortality at 500 ppm: Tetranychus urticae, read-out: Mortality score; on Appetite suppression score: key: 0 = no to little suppression; 1 = about 10% suppression; 2 = about 25% suppression; 3 = about 60% suppression; 4 = 70-100% suppression
Protocol: as §1

[4] = tested on: common cutworm (Spodoptera litura); test: whole plant or invertebrate
Protocol: as §1

[5] = tested on: tobacco whitefly (Bemisia tabaci); test: whole plant or invertebrate
Protocol: as §1

[6] = tested on: western flower thrips (Frankliniella occidentalis); test: whole plant or invertebrate
Protocol: as §1

[7] = tested on: cotton aphid (Aphis gossypii); test: whole plant or invertebrate
Protocol: as §1

[8] = tested on: green peach aphid (Myzus persicae); test: whole plant or invertebrate
Protocol: as §1

[9] = tested on: cabbage aphid (Brevicoryne brassicae); test: whole plant or invertebrate
Protocol: as §1

[10] = tested on: foxglove aphid (Aulacorthum solani); test: whole plant or invertebrate
Protocol: as §1

[11] = tested on: brown rice planthopper (Nilaparvata lugens); test: whole plant or invertebrate; settings: 3rd-4th instar, 6 DAT
Protocol: as §1

[12] = tested on: birdcherry-oat aphid (Rhopalosiphum padi); test: whole plant or invertebrate
Protocol: as §1

[13] = either by killing the larvae or suppressing the appetite of the larvae

CC(C)=C[C@H]1O[C@H]2[C@H]3O[C@@]34[C@H](CC[C@@]3(C)[C@@]4(O)CC[C@H]4Cc5c([nH]c6ccccc56)[C@@]43C)O[C@@H]2C(C)(C)O1 [Terpendole C, terpendole C]
LC50 ([1]; concentration for 50% control over 24-48 hours, infested radish leaves, 500 μl aerosolized dilution): 20 ppm
control of green peach aphids (in words) ([1]; summary of Table 1): effectively controlled
Appetite suppression score ([2]; 12.5 ppm, Cabbage, 3rd instar, 6 DAT): 0
Appetite suppression score ([2]; 50 ppm, Cabbage, 3rd instar, 6 DAT): 0
Appetite suppression score ([2]; 200 ppm, Cabbage, 3rd instar, 6 DAT): 3 (3 = about 60% suppression)
Appetite suppression score ([2]; 500 ppm, Cabbage, 3rd instar, 6 DAT): 4 (4 = 70-100% suppression)
mortality at 12.5 ppm ([2]; Plutella xylostella, 144 h, 12.5 ppm, Cabbage, 3rd instar, 6 DAT, read-out: Mortality score (converted)): 50%
mortality at 50 ppm ([2]; Plutella xylostella, 144 h, 50 ppm, Cabbage, 3rd instar, 6 DAT, read-out: Mortality score (converted)): 50%
mortality at 200 ppm ([2]; Plutella xylostella, 144 h, 200 ppm, Cabbage, 3rd instar, 6 DAT, read-out: Mortality score (converted)): 90%
mortality at 500 ppm ([2]; Plutella xylostella, 144 h, 500 ppm, Cabbage, 3rd instar, 6 DAT, read-out: Mortality score (converted)): 100%
control of diamondback moth (in words) [2, 13]: effectively controlled
Appetite suppression score ([3]; 12.5 ppm, 7 DAT): 0
Appetite suppression score ([3]; 12.5 ppm, 13 DAT): 0
Appetite suppression score ([3]; 50 ppm, 7 DAT): 0
Appetite suppression score ([3]; 50 ppm, 13 DAT): 0
Appetite suppression score ([3]; 200 ppm, 7 DAT): 0
Appetite suppression score ([3]; 200 ppm, 13 DAT): 0
Appetite suppression score ([3]; 500 ppm, 7 DAT): 0
Appetite suppression score ([3]; 500 ppm, 13 DAT): 0
mortality at 12.5 ppm ([3]; 168 h, 12.5 ppm, 7 DAT): < 29%
mortality at 50 ppm ([3]; 168 h, 50 ppm, 7 DAT): < 29%
mortality at 200 ppm ([3]; 168 h, 200 ppm, 7 DAT): < 29%
mortality at 500 ppm ([3]; 168 h, 500 ppm, 7 DAT): < 29%
mortality at 12.5 ppm ([3]; 312 h, 12.5 ppm, 13 DAT): < 29%
mortality at 50 ppm ([3]; 312 h, 50 ppm, 13 DAT): < 29%
mortality at 200 ppm ([3]; 312 h, 200 ppm, 13 DAT): < 29%
mortality at 500 ppm ([3]; 312 h, 500 ppm, 13 DAT): < 29%
Appetite suppression score ([4]; 12.5 ppm, Cabbage, 4th instar, 6 DAT): 4 (4 = 70-100% suppression)
Appetite suppression score ([4]; 50 ppm, Cabbage, 4th instar, 6 DAT): 4 (4 = 70-100% suppression)
Appetite suppression score ([4]; 200 ppm, Cabbage, 4th instar, 6 DAT): 4 (4 = 70-100% suppression)
Appetite suppression score ([4]; 500 ppm, Cabbage, 4th instar, 6 DAT): 4 (4 = 70-100% suppression)
mortality at 12.5 ppm ([4]; Spodoptera litura, 144 h, 12.5 ppm, Cabbage, 4th instar, 6 DAT, read-out: Mortality score): < 29%
mortality at 50 ppm ([4]; Spodoptera litura, 144 h, 50 ppm, Cabbage, 4th instar, 6 DAT, read-out: Mortality score): < 29%
mortality at 200 ppm ([4]; Spodoptera litura, 144 h, 200 ppm, Cabbage, 4th instar, 6 DAT, read-out: Mortality score): < 29%
mortality at 500 ppm ([4]; Spodoptera litura, 144 h, 500 ppm, Cabbage, 4th instar, 6 DAT, read-out: Mortality score): < 29%
control of common cutworm (in words) [4, 13]: effectively controlled
Mortality score ([5]; 12.5 ppm, Cabbage, 1st instar, 7 DAT): 0-2
mortality at 0.8 ppm ([5]; Bemisia tabaci, 168 h, 0.8 ppm, Cabbage, 1st instar, 7 DAT, read-out: Mortality score): < 29%
mortality at 1 ppm ([5]; Bemisia tabaci, 168 h, 1 ppm, Cabbage, 1st instar, 7 DAT, read-out: Mortality score (converted)): 50%
mortality at 3.1 ppm ([5]; Bemisia tabaci, 168 h, 3.1 ppm, Cabbage, 1st instar, 7 DAT, read-out: Mortality score (converted)): 50%
mortality at 50 ppm ([5]; Bemisia tabaci, 168 h, 50 ppm, Cabbage, 1st instar, 7 DAT, read-out: Mortality score): < 29%
mortality at 200 ppm ([5]; Bemisia tabaci, 168 h, 200 ppm, Cabbage, 1st instar, 7 DAT, read-out: Mortality score): < 29%
mortality at 500 ppm ([5]; Bemisia tabaci, 168 h, 500 ppm, Cabbage, 1st instar, 7 DAT, read-out: Mortality score): < 29%
control of the whitefly (in words) ([5]; summary of results): significantly controlled
Appetite suppression score ([6]; 12.5 ppm, Kidney Bean, 1st-2nd instar, 6 DAT): 3-4
Appetite suppression score ([6]; 50 ppm, Kidney Bean, 1st-2nd instar, 6 DAT): 3-4
Appetite suppression score ([6]; 200 ppm, Kidney Bean, 1st-2nd instar, 6 DAT): 3-4
Appetite suppression score ([6]; 500 ppm, Kidney Bean, 1st-2nd instar, 6 DAT): 3-4
mortality at 0.2 ppm ([6]; Frankliniella occidentalis, 144 h, 0.2 ppm, Kidney Bean, 1st-2nd instar, 6 DAT, read-out: Mortality score): < 29%
mortality at 0.8 ppm ([6]; Frankliniella occidentalis, 144 h, 0.8 ppm, Kidney Bean, 1st-2nd instar, 6 DAT, read-out: Mortality score): < 29%
mortality at 3.1 ppm ([6]; Frankliniella occidentalis, 144 h, 3.1 ppm, Kidney Bean, 1st-2nd instar, 6 DAT, read-out: Mortality score): < 29%
mortality at 12.5 ppm ([6]; Frankliniella occidentalis, 144 h, 12.5 ppm, Kidney Bean, 1st-2nd instar, 6 DAT, read-out: Mortality score): < 29%
mortality at 50 ppm ([6]; Frankliniella occidentalis, 144 h, 50 ppm, Kidney Bean, 1st-2nd instar, 6 DAT, read-out: Mortality score): < 29%
mortality at 200 ppm ([6]; Frankliniella occidentalis, 144 h, 200 ppm, Kidney Bean, 1st-2nd instar, 6 DAT, read-out: Mortality score): < 29%
mortality at 500 ppm ([6]; Frankliniella occidentalis, 144 h, 500 ppm, Kidney Bean, 1st-2nd instar, 6 DAT, read-out: Mortality score): < 29%
control of the thrips (in words) ([6]; summary of results): significantly controlled
Mortality score ([7]; 12.5 ppm, Cucumber, All stages, 6 DAT): 3-4
mortality at 0.2 ppm ([7]; Aphis gossypii, 144 h, 0.2 ppm, Cucumber, All stages, 6 DAT, read-out: Mortality score): < 29%
mortality at 0.8 ppm ([7]; Aphis gossypii, 144 h, 0.8 ppm, Cucumber, All stages, 6 DAT, read-out: Mortality score (converted)): 75%
mortality at 3.1 ppm ([7]; Aphis gossypii, 144 h, 3.1 ppm, Cucumber, All stages, 6 DAT, read-out: Mortality score (converted)): 90%
mortality at 50 ppm ([7]; Aphis gossypii, 144 h, 50 ppm, Cucumber, All stages, 6 DAT, read-out: Mortality score (converted)): 90%
mortality at 200 ppm ([7]; Aphis gossypii, 144 h, 200 ppm, Cucumber, All stages, 6 DAT, read-out: Mortality score (converted)): 100%
mortality at 500 ppm ([7]; Aphis gossypii, 144 h, 500 ppm, Cucumber, All stages, 6 DAT, read-out: Mortality score (converted)): 100%
control of cotton aphids (in words) ([7]; summary of Table 2): effectively controlled
mortality at 0.8 ppm ([8]; Myzus persicae, 144 h, 0.8 ppm, Cabbage, All stages, 6 DAT, read-out: Mortality score): < 29%
mortality at 3.1 ppm ([8]; Myzus persicae, 144 h, 3.1 ppm, Cabbage, All stages, 6 DAT, read-out: Mortality score (converted)): 50%
mortality at 12.5 ppm ([8]; Myzus persicae, 144 h, 12.5 ppm, Cabbage, All stages, 6 DAT, read-out: Mortality score (converted)): 75%
mortality at 50 ppm ([8]; Myzus persicae, 144 h, 50 ppm, Cabbage, All stages, 6 DAT, read-out: Mortality score (converted)): 90%
mortality at 200 ppm ([8]; Myzus persicae, 144 h, 200 ppm, Cabbage, All stages, 6 DAT, read-out: Mortality score (converted)): 100%
control of green peach aphids (in words) ([8]; summary of Table 2): effectively controlled
mortality at 0.8 ppm ([9]; Brevicoryne brassicae, 144 h, 0.8 ppm, Cabbage, All stages, 6 DAT, read-out: Mortality score (converted)): 75%
mortality at 3.1 ppm ([9]; Brevicoryne brassicae, 144 h, 3.1 ppm, Cabbage, All stages, 6 DAT, read-out: Mortality score (converted)): 75%
mortality at 12.5 ppm ([9]; Brevicoryne brassicae, 144 h, 12.5 ppm, Cabbage, All stages, 6 DAT, read-out: Mortality score (converted)): 100%
mortality at 50 ppm ([9]; Brevicoryne brassicae, 144 h, 50 ppm, Cabbage, All stages, 6 DAT, read-out: Mortality score (converted)): 100%
mortality at 200 ppm ([9]; Brevicoryne brassicae, 144 h, 200 ppm, Cabbage, All stages, 6 DAT, read-out: Mortality score (converted)): 100%
control of cabbage aphids (in words) ([9]; summary of Table 2): effectively controlled
Appetite suppression score ([10]; 12.5 ppm, Kidney Bean, Adult, 6 DAT): 0
Appetite suppression score ([10]; 50 ppm, Kidney Bean, Adult, 6 DAT): 0
Appetite suppression score ([10]; 200 ppm, Kidney Bean, Adult, 6 DAT): 0
Appetite suppression score ([10]; 500 ppm, Kidney Bean, Adult, 6 DAT): 2 (2 = about 25% suppression)
mortality at 12.5 ppm ([10]; Aulacorthum solani, 144 h, 12.5 ppm, Kidney Bean, Adult, 6 DAT, read-out: Mortality score): < 29%
mortality at 50 ppm ([10]; Aulacorthum solani, 144 h, 50 ppm, Kidney Bean, Adult, 6 DAT, read-out: Mortality score): < 29%
mortality at 200 ppm ([10]; Aulacorthum solani, 144 h, 200 ppm, Kidney Bean, Adult, 6 DAT, read-out: Mortality score (converted)): 50%
mortality at 500 ppm ([10]; Aulacorthum solani, 144 h, 500 ppm, Kidney Bean, Adult, 6 DAT, read-out: Mortality score (converted)): 75%
control of foxglove aphids (in words) ([10]; summary of Table 2): effectively controlled
Mortality score ([11]; 12.5 ppm): 0-1
mortality at 0.2 ppm ([11]; Nilaparvata lugens, 144 h, 0.2 ppm, read-out: Mortality score): < 29%
mortality at 0.8 ppm ([11]; Nilaparvata lugens, 144 h, 0.8 ppm, read-out: Mortality score): < 29%
mortality at 3.1 ppm ([11]; Nilaparvata lugens, 144 h, 3.1 ppm, read-out: Mortality score): < 29%
mortality at 50 ppm ([11]; Nilaparvata lugens, 144 h, 50 ppm, read-out: Mortality score): < 29%
mortality at 200 ppm ([11]; Nilaparvata lugens, 144 h, 200 ppm, read-out: Mortality score): < 29%
mortality at 500 ppm ([11]; Nilaparvata lugens, 144 h, 500 ppm, read-out: Mortality score): < 29%
mortality at 0.8 ppm ([12]; Rhopalosiphum padi, 144 h, 0.8 ppm, Wheat, All stages, 6 DAT, read-out: Mortality score): < 29%
mortality at 3.1 ppm ([12]; Rhopalosiphum padi, 144 h, 3.1 ppm, Wheat, All stages, 6 DAT, read-out: Mortality score): < 29%
mortality at 12.5 ppm ([12]; Rhopalosiphum padi, 144 h, 12.5 ppm, Wheat, All stages, 6 DAT, read-out: Mortality score (converted)): 50%
mortality at 50 ppm ([12]; Rhopalosiphum padi, 144 h, 50 ppm, Wheat, All stages, 6 DAT, read-out: Mortality score (converted)): 75%
mortality at 200 ppm ([12]; Rhopalosiphum padi, 144 h, 200 ppm, Wheat, All stages, 6 DAT, read-out: Mortality score (converted)): 90%
control of birdcherry-oat aphids (in words) ([12]; summary of Table 2): effectively controlled
